In US20220268780A1, “METHODS OF PREDICTING ENDOMETRIAL RECEPTIVITY” (HUDSON INSTITUTE OF MEDICAL RESEARCH, priority 2019, published 2022):

Tested on: PCX mRNA in Ishikawa cells
Experiment: Transfection of miRNA mimics into Ishikawa cells, PCX mRNA by real-time RT-PCR
Type: cell-based, human
Settings: mimic 5 μm, 24 h after transfection
Experimental: To confirm that these two miRNAs can directly down-regulate PCX, mimics of these miRNAs were transfected into a human endometrial epithelial Ishikawa cell line and the impact on the level of PCX expression examined.
Ishikawa cells were cultured overnight in a 12-well plate (3.0×10^5 per well) in complete medium containing MEM (Thermo Fisher Scientific) supplemented with 10% FCS, 1% L-glutamine (Sigma) and 1% antibiotic-antimycotic. The following day, cells were replenished with Opti-MEM for transfection. Control and miRNA mimics (5 μm, all from Thermo Fisher Scientific) were transfected into Ishikawa cells using Lipofectamine RNAiMAX Transfection Reagent (Thermo Fisher Scientific) for 24, 48, 72 h respectively, and PCX mRNA levels were examined by real-time RT-PCR. Combination of the two miRNAs (5 μm each) was also tested.

Substance | repression of PCX mRNA
miR-145: miRNA mimic (Thermo Fisher Scientific); sequence GUCCAGUUUUCCCAGGAAUCCCU, SEQ ID NO: 33 (chemistry not given here) | ~34%
miR-199: miRNA mimic (Thermo Fisher Scientific); sequence CCCAGUGUUCAGACUACCUGUUC, SEQ ID NO: 31 (chemistry not given here) | ~34%
